Data set [1] deals with SREBP-2 transcriptional activity (SREBP2 cleavage) in HepG2_LSSprom cells. Description: Luciferase reporter driven by a SREBP-2 specific promoter in HepG2_LSSprom cells. It counts as cell-based. The following applies: 24 h, read-out: SREBP2 Cleavage (IC50 μM) 24 h. An outline of the steps: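 HepG2_LSSprom cells dosed at 0.625-10 μM in serum-free medium for 6 h (or 24 h), then luciferase luminescence read. Signal normalized to vehicle (100%); IC50 by four-parameter nonlinear fit; five independent experiments, triplicate wells.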
On the technique in general: In a reporter assay the amount or activity of a reporter protein is the signal.

Data set [2] can be described thus: Cytotoxicity assay (LDH release) in HepG2_LSSprom cells. It counts as cell-based. As to conditions: human, HepG2 LSSprom cells, 24 h treatment, LDH release. The essentials: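 HepG2_LSSprom cells exposed to compound at 0.625–10 μM in serum-free medium for 6 h or 24 h. Medium LDH measured colorimetrically at 490 nm; release expressed as % of lysis control after vehicle subtraction, negatives set to 0; five independent experiments, triplicate wells, mean±SEM.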

The mark [3] stands for this setting: 24 h treatment, HepG2_LSSprom cells.

Structures are written as SMILES. Read-outs that look alike come from different tables or passages of the source.

IC50 data for 27 molecules are collected here from patent US10189826B2, “Heterocyclic compounds and methods of use” (Medivation Technologies LLC, priority 2015, dated 2019).

Broadly, the IC50 is the concentration that inhibits the measured activity by half. As for `CC(C)(C)c1cc(-c2csc(-c3ccc(C(=O)N4CC[C@H](O)C4)cc3Cl)c2)ccn1` [Compound 68a, (3S)-1-{4-[4-(2-tert-butylpyridin-4-yl)thiophen-2-yl]-3-chlorobenzoyl}pyrrolidin-3-ol], the IC50 in data set [1] (setting [3]) is 0.15 µM. Besides, the IC50 at 24 h in data set [2] was > 10 µM.
On the same counts, the results for `CC(C)(C)c1cc(-c2csc(-c3ccc(C(=O)N4CC[C@@H](O)C4)cc3Cl)c2)ccn1` [Compound 68b, (3R)-1-{4-[4-(2-tert-butylpyridin-4-yl)thiophen-2-yl]-3-chlorobenzoyl}pyrrolidin-3-ol] are 0.06 µM and > 10 µM.
On to `CC(C)(C)OC(=O)N[C@@H]1CCCN(C(=O)c2ccc(-c3cc(-c4ccnc(C(C)(C)C)c4)cs3)c(Cl)c2)C1` [Compound 69, tert-butyl N-[(3R)-1-{4-[4-(2-tert-butylpyridin-4-yl)thiophen-2-yl]-3-chlorobenzoyl}piperidin-3-yl]carbamate], for which the IC50 in data set [1] (setting [3]) was found to be 0.015 µM. Moreover, in data set [2], the IC50 at 24 h was > 10 µM.
On the same counts, the results for `CN(C(=O)OC(C)(C)C)C1CCCN(C(=O)c2ccc(-c3csc(-c4ccnc(C(C)(C)C)c4)c3)c(Cl)c2)C1` (stereo not drawn) [Compound 70, tert-butyl N-(1-{4-[5-(2-tert-butylpyridin-4-yl)thiophen-3-yl]-3-chlorobenzoyl}piperidin-3-yl)-N-methylcarbamate] are 0.08 µM and > 10 µM.
Consider `CC(C)(C)OC(=O)N1CCCC(NC(=O)c2ccc(-c3csc(-c4ccnc(C(C)(C)C)c4)c3)c(Cl)c2)C1` (stereo not drawn) [Compound 71, tert-butyl 3-{4-[5-(2-tert-butylpyridin-4-yl)thiophen-3-yl]-3-chlorobenzamido}piperidine-1-carboxylate], for which the IC50 in data set [1] (setting [3]) is 0.34 µM. Besides, the IC50 at 24 h in data set [2] was > 10 µM.
The matching figures for `CC(C)(C)c1cc(-c2cc(-c3ccc(C(=O)N4CCC(N)CC4)cc3Cl)cs2)ccn1` [Compound 72, 1-{4-[5-(2-tert-butylpyridin-4-yl)thiophen-3-yl]-3-chlorobenzoyl}piperidin-4-amine]: > 10 µM and > 10 µM.
As to `CC(C)(C)c1cc(-c2csc(-c3ccc(C(=O)N(CCC(=O)O)c4ccc(F)cc4)cc3Cl)c2)ccn1` [Compound 73, 3-(N-[4-[4-(2-tert-butyl-4-pyridyl)-2-thienyl]-3-chloro-benzoyl]-4-fluoro-anilino)propanoic acid], in data set [1], the IC50 is > 3 µM. Further, the IC50 at 24 h in data set [2] is > 10 µM.
For the molecule `CC(C)(C)c1cc(-c2csc(-c3ccc(C(=O)N4CCC[C@@H](N)C4)cc3Cl)c2)ccn1` [Compound 74a, (R)-(3-aminopiperidin-1-yl)(4-(4-(2-(tert-butyl)pyridin-4-yl)thiophen-2-yl)-3-chlorophenyl)methanone], the IC50 in data set [1] (setting [3]) was determined as 0.74 µM. Further, the half-inhibitory concentration (IC50) at 24 h in data set [2] is > 10 µM.
On the same counts, the results for `CC(C)(C)c1cc(-c2csc(-c3ccc(C(=O)N4CCC[C@H](N)C4)cc3Cl)c2)ccn1` [Compound 74b, (3S)-1-{4-[4-(2-tert-butylpyridin-4-yl)thiophen-2-yl]-3-chlorobenzoyl}piperidin-3-amine] are 0.51 µM and > 10 µM.
The matching figures for `CNC1CCCN(C(=O)c2ccc(-c3csc(-c4ccnc(C(C)(C)C)c4)c3)c(Cl)c2)C1` (stereo not drawn) [Compound 75, 1-{4-[5-(2-tert-butylpyridin-4-yl)thiophen-3-yl]-3-chlorobenzoyl}-N-methylpiperidin-3-amine]: 3.2 µM and > 10 µM.
The matching figures for `CC(C)(C)C(=O)NC1CCN(C(=O)c2ccc(-c3csc(-c4ccnc(C(C)(C)C)c4)c3)c(Cl)c2)CC1` [Compound 76, N-(1-{4-[5-(2-tert-butylpyridin-4-yl)thiophen-3-yl]-3-chlorobenzoyl}piperidin-4-yl)-2,2-dimethylpropanamide]: 1.6 µM and > 10 µM.
In the case of `Cc1sc(-c2ccc(C(=O)N3CCNC(=O)C3)cc2Cl)cc1-c1ccnc(C(C)(C)C)c1` [Compound 77, 4-{4-[4-(2-tert-butylpyridin-4-yl)-5-methylthiophen-2-yl]-3-chlorobenzoyl}piperazin-2-one], the IC50 in data set [1] (setting [3]) amounted to 2.3 µM. In addition, the IC50 at 24 h in data set [2] was > 10 µM.
The matching figures for `CC(C)(C)OC(=O)N1CCC(NC(=O)c2ccc(-c3csc(-c4ccnc(C(C)(C)C)c4)c3)c(Cl)c2)CC1` [Compound 78, tert-butyl 4-{4-[5-(2-tert-butylpyridin-4-yl)thiophen-3-yl]-3-chlorobenzamido}piperidine-1-carboxylate]: 0.2 µM and > 10 µM.
On the same counts, the results for `Cc1sc(-c2ccc(C(=O)N3CCC[C@@H](NC(=O)OC(C)(C)C)C3)cc2Cl)cc1-c1ccnc(C(C)(C)C)c1` [Compound 79a, tert-butyl N-[(3R)-1-{4-[4-(2-tert-butylpyridin-4-yl)-5-methylthiophen-2-yl]-3-chlorobenzoyl}piperidin-3-yl]carbamate] are 0.29 µM and > 10 µM.
On the same counts, the results for `Cc1sc(-c2ccc(C(=O)N3CCC[C@H](NC(=O)OC(C)(C)C)C3)cc2Cl)cc1-c1ccnc(C(C)(C)C)c1` [Compound 79b, tert-butyl N-[(3S)-1-{4-[4-(2-tert-butylpyridin-4-yl)-5-methylthiophen-2-yl]-3-chlorobenzoyl}piperidin-3-yl]carbamate] are 0.52 µM and > 10 µM.
Turning to `CC(C)(C)c1cc(-c2cc(-c3ccc(C(=O)N4CCCC(NCc5ccc(Cl)cc5)C4)cc3Cl)cs2)ccn1` (stereo not drawn) [Compound 80, 1-{4-[5-(2-tert-butylpyridin-4-yl)thiophen-3-yl]-3-chlorobenzoyl}-N-[(4-chlorophenyl)methyl]piperidin-3-amine], the IC50 in data set [1] (setting [3]) was determined as 0.06 µM. For the same molecule, the IC50 at 24 h in data set [2] was > 10 µM.
The matching figures for `CC(C)(C)c1cc(-c2cc(-c3ccc(C(=O)N4CCC[C@@H](NCc5ccc(Cl)cc5)C4)cc3Cl)cs2)ccn1` [Compound 80a, (R)-(4-(5-(2-(tert-butyl)pyridin-4-yl)thiophen-3-yl)-3-chlorophenyl)(3-((4-chlorobenzyl)amino)piperidin-1-yl)methanone]: 0.095 µM and > 10 µM.
`CC(C)(C)c1cc(-c2cc(-c3ccc(C(=O)N4CCC[C@H](NCc5ccc(Cl)cc5)C4)cc3Cl)cs2)ccn1` [Compound 80b, (S)-(4-(5-(2-(tert-butyl)pyridin-4-yl)thiophen-3-yl)-3-chlorophenyl)(3-((4-chlorobenzyl)amino)piperidin-1-yl)methanone]: the IC50 in data set [1] (setting [3]) was 0.04 µM. For the same molecule, the IC50 at 24 h in data set [2] was > 10 µM.
Regarding `CC(C)(C)c1cc(-c2cc(-c3ccc(C(=O)N4CCCC(NCc5cccc(Cl)c5)C4)cc3Cl)cs2)ccn1` (stereo not drawn) [Compound 81, 1-{4-[5-(2-tert-butylpyridin-4-yl)thiophen-3-yl]-3-chlorobenzoyl}-N-[(3-chlorophenyl)methyl]piperidin-3-amine], the IC50 in data set [1] (setting [3]) was determined as 0.14 µM. Further, the IC50 at 24 h in data set [2] was > 10 µM.
The matching figures for `CC(C)(C)c1cc(-c2cc(-c3ccc(C(=O)N4CCC(O)C4)cc3Cl)cs2)ccn1` (stereo not drawn) [Compound 82, [4-[5-(2-tert-butyl-4-pyridyl)-3-thienyl]-3-chloro-phenyl]-(3-hydroxypyrrolidin-1-yl)methanone]: 0.5 µM and > 10 µM.
On the same counts, the results for `CC(C)(C)c1cc(-c2cc(-c3ccc(C(=O)N4CCCC5(CCNC5=O)C4)cc3Cl)cs2)ccn1` (stereo not drawn) [Compound 83, 7-{4-[5-(2-tert-butylpyridin-4-yl)thiophen-3-yl]-3-chlorobenzoyl}-2,7-diazaspiro[4.5]decan-1-one] are 0.47 µM and > 10 µM.
The matching figures for `CC(C)(C)c1cc(-c2cc(-c3ccc(C(=O)N4CCN5CCCC5C4)cc3Cl)cs2)ccn1` (stereo not drawn) [Compound 84, 2-tert-butyl-4-[4-(2-chloro-4-{octahydropyrrolo[1,2-a]piperazine-2-carbonyl}phenyl)thiophen-2-yl]pyridine]: > 3 µM and > 10 µM.
Take `CC(C)(C)c1cc(-c2nc(-c3ccc(C(=O)N4CCCC(N)C4)cc3Cl)c[nH]2)ccn1` (stereo not drawn) [Compound 85, 1-{4-[2-(2-tert-butylpyridin-4-yl)-1H-imidazol-4-yl]-3-chlorobenzoyl}piperidin-3-amine]: in data set [1], the IC50 is > 3 µM. Also, in data set [2], the IC50 at 24 h was > 10 µM.
`CC(C)(C)c1cc(-c2csc(-c3ccc(C(=O)N4CCC(O)CC4)cc3Cl)c2)ccn1` [Compound 86, 1-{4-[4-(2-tert-butylpyridin-4-yl)thiophen-2-yl]-3-chlorobenzoyl}piperidin-4-ol]: in data set [1] (setting [3]), the IC50 is 0.06 µM. Besides, the IC50 at 24 h in data set [2] was > 10 µM.
On the same counts, the results for `Cc1sc(-c2ccc(C(=O)N3CCC[C@H](N)C3)cc2Cl)cc1-c1ccnc(C(C)(C)C)c1` [Compound 87a, (3S)-1-{4-[4-(2-tert-butylpyridin-4-yl)-5-methylthiophen-2-yl]-3-chlorobenzoyl}piperidin-3-amine] are > 10 µM and > 10 µM.
The matching figures for `Cc1sc(-c2ccc(C(=O)N3CCC[C@@H](N)C3)cc2Cl)cc1-c1ccnc(C(C)(C)C)c1` [Compound 87b, (3R)-1-{4-[4-(2-tert-butylpyridin-4-yl)-5-methylthiophen-2-yl]-3-chlorobenzoyl}piperidin-3-amine]: > 10 µM and > 10 µM.
The matching figures for `CC(C)(C)c1cc(-c2csc(-c3ccc(C(=O)N4CCC(C(=O)O)CC4)cc3Cl)c2)ccn1` [Compound 88, 1-{4-[4-(2-tert-butylpyridin-4-yl)thiophen-2-yl]-3-chlorobenzoyl}piperidine-4-carboxylic acid]: 2.8 µM and > 10 µM.
